Assay results published in patent US8802700B2 (Vertex Pharmaceuticals Incorporated, priority 2010, dated 2014).

These molecules were tested against T1, ΔF508-CFTR (Homo sapiens, UniProt P13569, DEL508-508) (assay: Membrane potential optical assay (FRET voltage-sensor dyes, VIPR), identification of potentiator compounds). Conditions: Table 3; assay not given.
T1 construct: expressed in transfected cells
Type: cell-based
Procedure, shortened: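 Potentiator screen measured membrane potential via FRET between CC2-DMPE donor and DiSBAC2(3), read on VIPR II. Compound went in with the first addition of chloride-free gluconate bath; cells were ΔF508-CFTR-expressing NIH3T3 mouse fibroblasts, temperature-corrected at 27 °C for 24 h.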

T1 sequence (P13569 with tags, fused parts or gaps DEL508-508): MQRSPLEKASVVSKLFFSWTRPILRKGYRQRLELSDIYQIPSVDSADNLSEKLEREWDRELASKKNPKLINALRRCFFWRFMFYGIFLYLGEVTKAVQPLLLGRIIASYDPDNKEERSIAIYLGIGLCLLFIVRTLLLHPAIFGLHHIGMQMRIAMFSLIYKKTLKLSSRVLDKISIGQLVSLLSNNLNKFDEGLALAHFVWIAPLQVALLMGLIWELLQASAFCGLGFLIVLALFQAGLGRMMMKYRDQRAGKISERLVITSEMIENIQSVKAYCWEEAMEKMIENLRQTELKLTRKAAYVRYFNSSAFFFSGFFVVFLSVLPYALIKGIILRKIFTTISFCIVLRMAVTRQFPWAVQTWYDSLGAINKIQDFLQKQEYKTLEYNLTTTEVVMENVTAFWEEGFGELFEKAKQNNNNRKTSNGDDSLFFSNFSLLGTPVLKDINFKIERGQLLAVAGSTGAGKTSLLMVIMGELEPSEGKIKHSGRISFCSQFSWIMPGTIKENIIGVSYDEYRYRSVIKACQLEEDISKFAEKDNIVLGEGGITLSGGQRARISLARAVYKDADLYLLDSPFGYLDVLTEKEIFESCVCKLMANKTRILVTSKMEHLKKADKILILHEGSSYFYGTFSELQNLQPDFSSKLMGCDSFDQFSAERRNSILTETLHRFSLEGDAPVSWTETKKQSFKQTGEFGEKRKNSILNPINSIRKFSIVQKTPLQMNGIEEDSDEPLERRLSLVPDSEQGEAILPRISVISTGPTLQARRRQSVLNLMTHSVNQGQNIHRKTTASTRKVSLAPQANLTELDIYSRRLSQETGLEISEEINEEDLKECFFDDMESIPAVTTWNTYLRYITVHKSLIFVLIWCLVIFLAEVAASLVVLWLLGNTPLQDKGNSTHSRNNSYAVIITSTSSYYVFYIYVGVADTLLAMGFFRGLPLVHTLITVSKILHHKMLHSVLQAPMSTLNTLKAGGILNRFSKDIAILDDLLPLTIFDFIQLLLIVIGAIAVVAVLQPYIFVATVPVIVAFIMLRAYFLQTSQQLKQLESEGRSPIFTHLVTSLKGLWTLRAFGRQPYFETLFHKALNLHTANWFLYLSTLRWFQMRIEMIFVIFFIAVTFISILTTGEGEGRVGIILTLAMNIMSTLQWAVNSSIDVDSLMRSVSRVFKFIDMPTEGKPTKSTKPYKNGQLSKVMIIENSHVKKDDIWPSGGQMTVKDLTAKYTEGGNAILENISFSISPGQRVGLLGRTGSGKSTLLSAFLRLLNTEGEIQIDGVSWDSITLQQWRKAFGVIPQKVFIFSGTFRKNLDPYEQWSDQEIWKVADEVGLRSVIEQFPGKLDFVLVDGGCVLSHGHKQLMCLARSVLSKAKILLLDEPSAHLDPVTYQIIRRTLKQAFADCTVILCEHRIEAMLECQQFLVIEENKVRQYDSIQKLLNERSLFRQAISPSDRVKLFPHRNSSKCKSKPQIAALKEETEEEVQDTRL

EC50 | SMILES
< 10 µM | CCc1ccc(NC(=O)c2c[nH]c3ccccc3c2=O)cc1 [Compound 463, N-(4-ethylphenyl)-4-oxo-1H-quinoline-3-carboxamide]
< 10 µM | Cc1cc(-c2ccccc2NC(=O)c2c[nH]c3ccccc3c2=O)ccc1F [Compound 79, N-[2-(4-fluoro-3-methyl-phenyl)phenyl]-4-oxo-1H-quinoline-3-carboxamide]
< 10 µM | CC(C)(C)c1c[nH]c2cc(NC(=O)c3c[nH]c4ccccc4c3=O)c(C(F)(F)F)cc12 [Compound 508, 4-oxo-N-[3-tert-butyl-5-(trifluoromethyl)-1H-indol-6-yl]-1H-quinoline-3-carboxamide]

Same assay, conditions: Table 3; assay not given; read-out: % Activity (% Efficacy, relative efficacy)

SMILES | Emax
CCOc1ccc2[nH]cc(C(=O)Nc3cc4[nH]ccc4cc3C(C)(C)C)c(=O)c2c1 [Compound 681, 6-ethoxy-4-oxo-N-(5-tert-butyl-1H-indol-6-yl)-1H-quinoline-3-carboxamide] | 25 to 100%
CC1(C)CCCNc2cc(NC(=O)c3c[nH]c4ccccc4c3=O)ccc21 [Compound 35, 1,4-dihydro-N-(2,3,4,5-tetrahydro-5,5-dimethyl-1H-benzo[b]azepin-8-yl)-4-oxoquinoline-3-carboxamide] | 25 to 100%
O=C(Nc1ccc(C2CCCCC2)c(O)c1)c1c[nH]c2ccc(F)cc2c1=O [Compound 651, N-(4-cyclohexyl-3-hydroxy-phenyl)-6-fluoro-4-oxo-1H-quinoline-3-carboxamide] | 25 to 100%
O=C(Nc1ccccc1-c1ccc(Oc2ccccc2)cc1)c1c[nH]c2ccccc2c1=O [Compound 410, 4-oxo-N-[2-(4-phenoxyphenyl)phenyl]-1H-quinoline-3-carboxamide] | > 100%
O=C(Nc1ccccc1-c1cccc(Cl)c1)c1c[nH]c2ccccc2c1=O [Compound 307, N-[2-(3-chlorophenyl)phenyl]-4-oxo-1H-quinoline-3-carboxamide] | 25 to 100%
COC(=O)NCC(C)(C)c1ccc(NC(=O)c2c[nH]c3ccccc3c2=O)cc1 [Compound 323, [2-Methyl-2-[4-[(4-oxo-1H-quinolin-3-yl)carbonylamino]phenyl]-propyl]aminoformic acid methyl ester] | 25 to 100%
CCc1ccc(NC(=O)c2c[nH]c3ccccc3c2=O)cc1 [Compound 463, N-(4-ethylphenyl)-4-oxo-1H-quinoline-3-carboxamide] | 25 to 100%
Cc1ccc2c(c1)c(=O)c(C(=O)Nc1ccccc1)cn2C [Compound 394, 1,6-dimethyl-4-oxo-N-phenyl-1H-quinoline-3-carboxamide] | < 25%
CC1CCN(S(=O)(=O)c2ccc3[nH]cc(C(=O)Nc4cc5[nH]ccc5cc4C(C)(C)C)c(=O)c3c2)CC1 [Compound 51, 6-[(4-methyl-1-piperidyl)sulfonyl]-4-oxo-N-(5-tert-butyl-1H-indol-6-yl)-1H-quinoline-3-carboxamide] | 25 to 100%
Cc1cccc2[nH]cc(C(=O)Nc3ccc(N4[C@H](C)CC[C@H]4C)cc3C(F)(F)F)c(=O)c12 [Compound 539, N-(4-((2R,5R)-2,5-dimethylpyrrolidin-1-yl)-2-(trifluoromethyl)phenyl)-5-methyl-4-oxo-1,4-dihydroquinoline-3-carboxamide] | 25 to 100%
N#Cc1cccc(-c2ccccc2NC(=O)c2c[nH]c3ccccc3c2=O)c1 [Compound 83, N-[2-(3-cyanophenyl)phenyl]-4-oxo-1H-quinoline-3-carboxamide] | 25 to 100%
CC(C)COC(=O)NCC(C)(C)c1ccc(NC(=O)c2c[nH]c3ccccc3c2=O)cc1 [Compound 251, [2-methyl-2-[4-[(4-oxo-1H-quinolin-3-yl)carbonylamino]phenyl]-propyl]aminoformic acid isobutyl ester] | 25 to 100%
O=C(Nc1cc2[nH]ccc2cc1F)c1c[nH]c2cccc(O)c2c1=O [Compound 596, N-(5-fluoro-1H-indol-6-yl)-5-hydroxy-4-oxo-1H-quinoline-3-carboxamide] | 25 to 100%
COC(=O)[C@@H]1C[C@@H](OC(C)(C)C)CN1c1ccc(NC(=O)c2c[nH]c3ccccc3c2=O)c(C(F)(F)F)c1 [Compound 550, (2S,4R)-methyl 4-tert-butoxy-1-(4-(4-oxo-1,4-dihydroquinoline-3-carboxamido)-3-(trifluoromethyl)phenyl)pyrrolidine-2-carboxylate] | 25 to 100%
COc1cc(N2CCCC2)ccc1NC(=O)c1c[nH]c2ccccc2c1=O [Compound 675, N-(2-methoxy-4-pyrrolidin-1-yl-phenyl)-4-oxo-1H-quinoline-3-carboxamide] | 25 to 100%
Cc1cc(-c2ccccc2NC(=O)c2c[nH]c3ccccc3c2=O)ccc1F [Compound 79, N-[2-(4-fluoro-3-methyl-phenyl)phenyl]-4-oxo-1H-quinoline-3-carboxamide] | 25 to 100%
O=C(Nc1ccc(F)cn1)c1c[nH]c2ccccc2c1=O [Compound 477, N-(5-fluoro-2-pyridyl)-4-oxo-1H-quinoline-3-carboxamide] | < 25%
N#Cc1ccc(NC(=O)c2c[nH]c3ccccc3c2=O)cc1 [Compound 194, N-(4-cyanophenyl)-4-oxo-1H-quinoline-3-carboxamide] | < 25%
O=C(Nc1ccccc1C(O)c1ccccc1)c1c[nH]c2ccccc2c1=O (centres unmarked) [Compound 228, N-[2-(hydroxy-phenyl-methyl)phenyl]-4-oxo-1H-quinoline-3-carboxamide] | 25 to 100%
CC(C)(C)c1cc(C(C)(C)C)c(NC(=O)c2c[nH]c3cc(O)ccc3c2=O)cc1O [Compound 652, 7-hydroxy-N-(5-hydroxy-2,4-ditert-butyl-phenyl)-4-oxo-1H-quinoline-3-carboxamide] | 25 to 100%
CC(C)(C)c1ccccc1Oc1ccccc1NC(=O)c1c[nH]c2ccccc2c1=O [Compound 178, 4-oxo-N-[2-(2-tert-butylphenoxy)phenyl]-1H-quinoline-3-carboxamide] | 25 to 100%
O=C(Nc1cccc(S(=O)(=O)N2CCCC2)c1)c1c[nH]c2ccccc2c1=O [Compound 24, 4-oxo-N-(3-pyrrolidin-1-ylsulfonylphenyl)-1H-quinoline-3-carboxamide] | < 25%
CC(C)(C)c1cc(F)c(NC(=O)c2c[nH]c3cc(F)c(F)cc3c2=O)cc1O [Compound 486, 6,7-difluoro-N-(2-fluoro-5-hydroxy-4-tert-butyl-phenyl)-4-oxo-1H-quinoline-3-carboxamide] | 25 to 100%
O=C(Nc1ccc2c3c([nH]c2c1)CCCC3)c1c[nH]c2ccccc2c1=O [Compound 244, 4-oxo-N-(6,7,8,9-tetrahydro-5H-carbazol-2-yl)-1H-quinoline-3-carboxamide] | 25 to 100%

The next lines start with the values.

Emax | SMILES
25 to 100% | CC(C)(C)c1cc2cc[nH]c2cc1NC(=O)c1c[nH]c2ccccc2c1=O [Compound 381, 4-oxo-N-(5-tert-butyl-1H-indol-6-yl)-1H-quinoline-3-carboxamide]
25 to 100% | O=C(Nc1cc(N2CCCC2)cc(C(F)(F)F)c1)c1c[nH]c2ccccc2c1=O [Compound 593, 4-oxo-N-[3-pyrrolidin-1-yl-5-(trifluoromethyl)phenyl]-1H-quinoline-3-carboxamide]
25 to 100% | COC(=O)[C@@H]1[C@H]2C[C@H]2CN1c1ccc(NC(=O)c2c[nH]c3ccccc3c2=O)c(C(F)(F)F)c1 [Compound 531, (1S,2S,5R)-methyl 3-(4-(4-oxo-1,4-dihydroquinoline-3-carboxamido)-3-(trifluoromethyl)phenyl)-3-azabicyclo[3.1.0]hexane-2-carboxylate]
25 to 100% | CCOc1ccc(OCC)c(NC(=O)c2c[nH]c3ccccc3c2=O)c1 [Compound 264, N-(2,5-diethoxyphenyl)-4-oxo-1H-quinoline-3-carboxamide]
25 to 100% | CC(C)(C)c1ccc(NC(=O)c2c[nH]c3ccccc3c2=O)c(Cl)c1 [Compound 362, N-(2-chloro-4-tert-butyl-phenyl)-4-oxo-1H-quinoline-3-carboxamide]
25 to 100% | CCCCc1ccccc1NC(=O)c1c[nH]c2ccccc2c1=O [Compound 336, N-(2-butylphenyl)-4-oxo-1H-quinoline-3-carboxamide]
25 to 100% | CC(C)(C)c1ccc(O)cc1NC(=O)c1c[nH]c2ccc(F)cc2c1=O [Compound 665, 6-fluoro-N-(5-hydroxy-2-tert-butyl-phenyl)-4-oxo-1H-quinoline-3-carboxamide]
25 to 100% | CC(C)c1ccc(NC(=O)c2c[nH]c3ccccc3c2=O)cc1O [Compound 575, N-(3-hydroxy-4-isopropyl-phenyl)-4-oxo-1H-quinoline-3-carboxamide]
> 100% | O=C(Nc1cc(O)c(C2CCCCC2)cc1C(F)(F)F)c1c[nH]c2ccccc2c1=O [Compound 619, N-[4-cyclohexyl-5-hydroxy-2-(trifluoromethyl)phenyl]-4-oxo-1H-quinoline-3-carboxamide]
25 to 100% | COc1ncccc1NC(=O)c1c[nH]c2ccccc2c1=O [Compound 15, N-(2-methoxy-3-pyridyl)-4-oxo-1H-quinoline-3-carboxamide]
25 to 100% | CC(C)(C)c1c[nH]c2cc(NC(=O)c3c[nH]c4ccccc4c3=O)c(C(F)(F)F)cc12 [Compound 508, 4-oxo-N-[3-tert-butyl-5-(trifluoromethyl)-1H-indol-6-yl]-1H-quinoline-3-carboxamide]
25 to 100% | Cc1ccc(C)c(NC(=O)c2c[nH]c3ccccc3c2=O)c1 [Compound 434, N-(2,5-dimethylphenyl)-4-oxo-1H-quinoline-3-carboxamide]
25 to 100% | Cc1cccc2[nH]cc(C(=O)Nc3ccc(N4CCC(C)C4)cc3C(F)(F)F)c(=O)c12 (centres unmarked) [Compound 546, 5-methyl-N-[4-(3-methylpyrrolidin-1-yl)-2-(trifluoromethyl)phenyl]-4-oxo-1H-quinoline-3-carboxamide]
25 to 100% | CC(C)(C)CC(=O)Nc1ccc(C(C)(C)C)c(NC(=O)c2c[nH]c3ccccc3c2=O)c1 [Compound 196, N-[5-(3,3-dimethylbutanoylamino)-2-tert-butyl-phenyl]-4-oxo-1H-quinoline-3-carboxamide]
> 100% | CC(C)c1cc(C(F)(F)F)c(NC(=O)c2c[nH]c3ccccc3c2=O)cc1O [Compound 497, N-[5-hydroxy-4-isopropyl-2-(trifluoromethyl)phenyl]-4-oxo-1H-quinoline-3-carboxamide]
25 to 100% | O=C(Nc1ccccc1-c1ccc(C(F)(F)F)cc1)c1c[nH]c2ccccc2c1=O [Compound 366, 4-oxo-N-[2-[4-(trifluoromethyl)phenyl]phenyl]-1H-quinoline-3-carboxamide]
25 to 100% | CC(C)(C)c1ccc(NC(=O)c2c[nH]c3ccccc3c2=O)cc1F [Compound 645, N-(3-fluoro-4-tert-butyl-phenyl)-4-oxo-1H-quinoline-3-carboxamide]
